“And” between values parts separate entries of the source, which are not always exact repeats. Equal values may be shown once.
Legend:
Type in all cases: cell-based
H1299 = experiment: MTT assay, growth inhibition by deguelin or deguelin derivatives; conditions: H1299, 3 days
Cal6 = experiment: as above; conditions: 3 days
1799 cells = experiment: MTT assay, viability of 1799 cells (also after Ad5CMV-MyrAkt-HA infection)
Description: Cells and Cell Cultures. […] Tumors developed 6 months later. […] (Klein-Szanto et al., 1992).

ERK1/2 (MAPK) = experiment: ERK 1/2 kinase assay (MBP phosphorylation, immunoprecipitate of treated cells); conditions: 1799 cells, 10^−7 M deguelin
Experimental: ERK 1/2 Kinase assay. ERK1/2 activity was determined by analyzing MAPK-induced phosphorylation of myelin basic protein (MBP) as previously described (Lee et al., 2002). Briefly, 1799 cells cultured in KSFM containing 10^−7 M deguelin for different time periods were lysed in lysis buffer, and ERK-1 and -2 were immunoprecipitated from 100 μg of cell extracts with antibodies (1 μg) that recognize ERK-1 and -2 (Santa Cruz Biotechnology) by rotation at 4° C. for overnight. The total volume was adjusted to 0.5 ml with lysis buffer. Protein A sepharose beads (20 μl) (Amersham Pharmacia Biotech) were added and incubated at 4° C. for 2 hour. The beads were washed three times with lysis buffer and once with kinase buffer (20 MM Hepes [pH 7.5], 20 mM β-glycerol phosphate, 10 mM PNPP, 10 mM MgCl2, 1 mM dithiothreitol, 50 mM sodium vanadate). Kinase assays were performed by incubating the beads with 30 μl kinase buffer to which […], 5 μCi [γ^32P] ATP (2000 cpm/pmol), and 2 μg MBP (Cell Signaling Technology) were added. The kinase reaction was performed at 30° C. for 20 min. The samples were suspended in Laemmli buffer, boiled for 5 min, and the samples were analyzed by SDS-PAGE. The gel was dried and autoradiographed.

HUVEC cells = experiment: HUVEC proliferation, MTT assay; conditions: 0.1, 1 and 10 μM, 3 days
Experimental: FIGS. 9A-9D.—Anti-angiogenic activity of deguelin. (FIG. 9A) CAMs after incubation with Thermanox coverslips containing vehicle (Con), deguelin ([…]) or RA (1 μg) as a positive control or for 48 h (circle indicate the placement of coverslip). (FIG. 9B) The anti-angiogenic effect of deguelin was evaluated by calculating the percentage of positive eggs. □ empty coverslip as control; ▪ RA 1 μg/egg; ▪ deguelin 1 or 5 nmole/egg. Each value represents the mean±SE. (FIG. 9C) Appearance of matrigel from mice. The effects of deguelin on bFGF-induced angiogenesis in vivo was analyzed by matrigel plug assay using nude mouse. Matrigel alone (Con)—negative control, 100 ng/ml bFGF and 72 units/ml heparin in a vehicle of 0.1% BSA/PBS (bFGF)—positive control, 5 niole deguelin alone, and 5 nmole deguelin plus bFGF were included. (FIG. 9D) Proliferation of HUVEC cells treated with indicated doses of deguelin for 3 days was analyzed by MTT assay. Bars, means±SD of a representative experiment done in triplicate from five independently performed experiments for each cell line.
Inhibition of angiogenesis by deguelin was also evaluated using the Matrigel™ plug assay, an established in vivo angiogenesis model, using nude mice. […]

H1299 NSCLC cells = experiment: Sensitization to chemotherapeutic agents and irradiation, MTT analysis; conditions: deguelin 100 nM 2 days; 10 nM paclitaxel, 50 nM doxorubicin or 4Gy irradiation for 1 day
Experimental: FIG. 10. […] Results are expressed relative to the density of untreated cells. Bars, means±SD of a representative experiment done in six identical wells from five independently performed experiments.
Additional studies were conducted to determine whether deguelin can sensitize cells resistant to a chemotherapeutic agent. H1299 NSCLC cells were incubated with deguelin (100 nM) for 2 days.

COc1cc2c(cc1OC)[C@@H]1C(=O)c3ccc4c(c3O[C@@H]1CO2)C=CC(C)(C)O4 [Deguelin]
Avg. % con (H1299; deguelin 10^−6M): 0.36 % con | MTT value, mean of replicates (unheaded line) (H1299; deguelin 10^−6M): 0.048 | MTT value, replicate (unheaded line) (H1299; deguelin 10^−6M): 0.052 and 0.043 and 0.049 | Avg. % con (H1299; deguelin 10^−8M): 0.78 % con | MTT value, mean of replicates (unheaded line) (H1299; deguelin 10^−8M): 0.104 | MTT value, replicate (unheaded line) (H1299; deguelin 10^−8M): 0.101 and 0.108 and 0.103 | Avg. % con (H1299; deguelin 10^−10M): 0.73 % con | MTT value, mean of replicates (unheaded line) (H1299; deguelin 10^−10M): 0.098 | MTT value, replicate (unheaded line) (H1299; deguelin 10^−10M): 0.119 and 0.087 and 0.089 | Avg. % con (H1299; deguelin 10^−12M): 0.98 % con | MTT value, mean of replicates (unheaded line) (H1299; deguelin 10^−12M): 0.132 | MTT value, replicate (unheaded line) (H1299; deguelin 10^−12M): 0.121 and 0.136 and 0.138 | Avg. % con (Cal6; deguelin 10^−6M): 0.24 % con | MTT value, mean of replicates (unheaded line) (Cal6; deguelin 10^−6M): 0.094 | MTT value, replicate (unheaded line) (Cal6; deguelin 10^−6M): 0.098 and 0.106 and 0.078 | Avg. % con (Cal6; deguelin 10^−8M): 0.88 % con | MTT value, mean of replicates (unheaded line) (Cal6; deguelin 10^−8M): 0.345 | MTT value, replicate (unheaded line) (Cal6; deguelin 10^−8M): 0.356 and 0.338 and 0.341 | Avg. % con (Cal6; deguelin 10^−10M): 0.93 % con | MTT value, mean of replicates (unheaded line) (Cal6; deguelin 10^−10M): 0.364 | MTT value, replicate (unheaded line) (Cal6; deguelin 10^−10M): 0.332 and 0.386 and 0.374 | Avg. % con (Cal6; deguelin 10^−12M): 0.92 % con | MTT value, mean of replicates (unheaded line) (Cal6; deguelin 10^−12M): 0.360 | MTT value, replicate (unheaded line) (Cal6; deguelin 10^−12M): 0.357 and 0.358 and 0.366 | viable number of 1799 cells (1799 cells; 1 day, concentration as low as 10^−9 M): reduced | viability at 0.1 µM (1799 cells; 48 h, 10^−7 M deguelin, 2 days, read-out: viable cells, 1799 cells infected with 5×10^3 particles/cell Ad5CMV-Myr.Akt.HA): > 80% | MAPK activity (ERK1/2 (MAPK)): not affected | proliferation of HUVEC cells (HUVEC cells): Inhibition of cell proliferation was observed | sensitization to chemotherapeutic agents (H1299 NSCLC cells): sensitizes cancer cells to chemotherapeutic agents

— patent US20060128792A1, “Deguelin as a chemopreventive agent for lung cancer” (priority 2002, published 2006)
